Results taken from patent US7118744B2, “Immunogenic compositions for induction of anti-tumor immunity” (Yeda Research and Development Co., Ltd., priority 1997, dated 2006).
Ends that are not written are not given here.

Assays:
[1] = tested on: Meth A Sarcoma Cells; assay: Rejection of Meth A tumor challenge in immunized mice; format: in vivo; details: BALB/c mice immunized with 100 μg CDR-based peptide
Method: (a) The Meth A tumor is a transplantable 3-methylcholantrene-induced sarcoma of BALB/c origin (Old et al., 1962) that has three mutations in the p53 coding sequence (Arai et al., 1986). The cells were grown in DMEM containing 10% heat-inactivated fetal calf serum (FCS), and passaged through BALB/c mice to select for tumorogenicity. For challenge, mice were injected intradermally with 10^6 Meth A cells. […] Rejection was scored as the disappearance of the tumor mass within 20 days after tumor challenge.
To learn whether immunization with anti-p53 mAb might influence in vivo the development of a tumor bearing a mutated form of the p53 molecule, groups of BALB/c female mice were immunized as above with either mAb 240, mAb 246, mAb 421 or mAb 9E 10. The mice were challenged intradermally with 10^6 Meth A tumor cells 10 days after the boost. Non-immunized mice were also tested.
Immunization of BALB/c mice with peptides V–IX of Example 3 was carried out as described for the whole mAbs in Materials and Methods, section iv, using 100 μg of peptide, and then assayed for the development of anti-p53 antibodies.

[2] = tested on: p53; assay: Induction of anti-p53 antibodies in immunized mice, ELISA on wild type p53; format: in vivo, mouse; details: BALB/c mice immunized with 100 μg of peptide
Method: E Coli BL21 (DE3) cells transformed with the T7 expression vector containing regularly spliced mouse p53 cDNA were used to express wild type or mutant p53 as previously described (Shohat-Foord et at., 1991; Wolkowicz et al., 1995). For protein induction, IPTG at a final concentration of 0.4 mM was added when the cells had reached an O.D.600 of 0.8–1.0. Three hours after induction, the cells were harvested from a 200 ml culture by centrifugation, and the pellet was resuspended in 5 ml of ice-cold lysis buffer (20 mM Tris-HCl, pH: 7.4; 500 mM NaCl; 10% glycerol; 1 mM EDTA; 1 mM PMSF; 5 μg/ml leupeptine; 10 μg/ml aprotinin and 0.1% NP40). The lysate was subjected to sonication for 10 cycles of 15 s of sonication followed by 15 s of gentle swirling. The solicited sample was subjected to two cycles of freeze-thaw and then centrifuged for 10 min at 10.000× g. […]
[…] Antibodies were measured after booster immurdzation.
For the ELISA assay flat bottom maxi-sorb plates (Nunc, Roskilde, Denmark) were coated with 50 μl per well of mutant or wild type p53 at a concentration of 10 μg/ml. […] After washing, the plates were incubated with the substrate, p-nitrophenil phosphate disodium (Sigma) and read using an ELISA reader at 405 nm. Sera manifesting an O.D. reading, after substraction of the background, of 0.3 or greater, were scored as positive.

GDINPNNGYTIYNQKVKGKA [Peptide VII, includes CDR2 of the heavy chain of mAb 246]
Incidence of Rejected Tumors [1]: 5/5

GVYYCWQGTHSPLTFGAGTK [Peptide VI, includes CDR3 of the light chain of mAb 421]
Incidence of Rejected Tumors [1]: 5/5 | incidence of mice developing IgG anti-p53 antibodies (ELISA assay) [2]: 7/10

YYCQHIRELTRSEGGPS [Peptide V, includes CDR3 of the light chain of mAb 240]
Incidence of Rejected Tumors [1]: 4/5 | incidence of mice developing IgG anti-p53 antibodies (ELISA assay) [2]: 8/10

VYFCQQSNSWPVHARGGGTK [Peptide IX, includes CDR3 of the light chain of mAb 248]
Incidence of Rejected Tumors [1]: 4/5

AVYYCARSGSRFDYWGEGTT [Peptide VIII, includes CDR3 of the heavy chain of mAb 248]
Incidence of Rejected Tumors [1]: 4/5
